Key:
[1] = system: UUO-induced renal fibrosis; test: SD rat kidney fibrosis model by unilateral ureteral occlusion (UUO); format: in vivo, Sprague Dawley rat
Method: This study was to evaluate the therapeutic efficacy of the MMP-12 inhibitor FC-4 on a renal fibrosis model by unilateral ureteral occlusion (UUO). Male Sprague Dawley (SD) rats (180-220 g, n=71) were used in this study. Animals were randomly divided into 4 groups: vehicle group (group-1, n=8), FC-4 2 mg/kg/day group (group-2, n=9), FC-4 6 mg/kg/day group (group-3, n=9), FC-4 20 mg/kg/day group (group-4, n=9). Animals were anesthetized with 2.5% isoflurane inhalation. The left ureter was ligated to create a unilateral ureteral occlusion (UUO) model to induce renal fibrosis. The test article FC-4 was administrated twice a day via oral delivery after modeling for 14 days. Peripheral blood serum was prepared at pre-modeling and day-15 (one day after last dosing). All animals were euthanized and processed for left kidney pathology studies.
Animals: Gender: Male, SD rats, 180-220 g, total 71. Certificate: 11400700272659, Beijing Vital River Laboratory Animal Technology Co., Ltd., China. Animal holding: Animals were maintained in a temperature-controlled environment with a 12 hours light/12 hours dark cycle and free access to food and water. Experimental procedures were performed according to IACUC guidelines in the KCI (SuZhou) Biotech Inc. (KCI) animal research facility. Model creation: Total 36 male SD rats were used in this study. After anesthesia with 2.5% isoflurane inhalation the animal abdomen was opened surgically. The left ureter was exposed and ligated close to the bladder to create the UUO model. After confirming no bleeding, the abdomen wall was closed in layers. The animals were maintained under temperature controlled pad (37° C.) for the recovery from anesthesia, and then were transferred to holding cages with regular food and water.
Experiment grouping: UUO modeling animals were divided into 4 groups randomly as vehicle (group-1, n=9), FC-4 2 mg/kg/day (group-2, n=9), FC-4 6 mg/kg/day (group-3, n=9), FC-4 20 mg/kg/day (group-4, n=9) (Table 4.1). Dosing regimen: All test articles were designed as an oral administration via a gastric perfusion. Test articles were designed to be delivered twice a day starting on the same day of modeling for 14 days (Table 4.1). Endpoints: 1) Blood collection: Peripheral blood was collected from all animals in each group and prepared for serum at pre-modeling and day-15 (one day after last dosing), stored at −80° C. All animals were euthanized according to KCI SOP. After confirming animal death without breath and heart beat, the left kidneys were perfused with cold PBS followed by 10% neutral formalin and collected for further pathology study. 2) Detection of serum BUN and creatinine: The serum BUN and creatinine level were detected with Hitachi 7060 automatic biochemical analyzer and related test kits. 3) Kidney pathology examination: 3a) Kidney H&E staining and analysis: Following KCI's pathologic SOP all left kidneys were fixed in 10% formalin for at least 24 h at room temperature. After fixation, the kidney was cut longitudinally to get the largest surface and dehydrated in graded ethanol, cleared in xylene, and embedded in paraffin. Thin sections (3-μm) were mounted on glass slides, dewaxed, rehydrated to distilled water, and stained with hematoxylin and eosin (H&E). All stained slides were scanned with NanoZoomer Digital Pathology (S210, Hamamaci, Japan) scanner. Semi quantitative evaluation of the degree of tubular epithelial flattening and dilatation were graded from 0-5 according to the percentage of tubular involvement: score 0=no damage; score 1=1-10% damage; score 2=10-25% damage; score 3=25-50% damage; score 4=50-75% damage; score 5=75-100% damage. Semi quantitative evaluation of the tubular necrosis is graded from 0 to 3 according to the percentage of tubular involvement: score 0=no necrosis; score 1=<25% necrosis; score 2=25-50% necrosis; score 3=>50% necrosis. The average of tubular flattening and dilatation and necrosis as the total tubular damage was presented. […]

[2] = target: recombinant human MMP-7 (Homo sapiens (Human), UniProt P09237); test: MMP selectivity assay MMP-7; format: biochemical
Method: The inhibitory effect of compounds on the rate of cleaving fluorogenic MMP substrate (Enzo, BML-P128) by recombinant human MMP-12 catalytic domain (Enzo, BML-SE138) was carried out by methods known in the art. Briefly, to each well of a 96-well black opaque plate, all the reagents were sequentially added by pipetting, and the final reaction contained 4 nM of recombinant human MMP-12 catalytic domain, 4 μM of fluorogenic MMP substrate, and various concentrations (0.15 nM to 10,000 nM) of tested compound dilutions in HEPES buffer (pH 7.5) containing 10 mM of CaCl2, 0.01% Brij® 35 (polyoxyethylene (23) lauryl ether), and 0.1 mg/ml of BSA.
The enzyme and compounds were pre-incubated on a shaker to mix in wells. After an hour of mixing, fluorogenic substrate was added to each well. Reaction without enzyme was used as a blank control in the plate. The plate was then fed into a plate reader to measure fluorescence intensity at Excitation/Emission wavelengths of 340 nm/440 nm every 10 mins for at least 1 hour at 37° C. The IC50 of each compound in MMP-12 inhibition was determined by using a readout obtained at time point 30 minutes.
The MMP selectivity assay was performed by using other recombinant human MMPs, including MMP-1, MMP-2, MMP-3, MMP-7, MMP-8, MMP-9, MMP-10, MMP-13, and MMP-14. The IC50 of the compounds for the other recombinant human MMPs was determined as described above in Example 1, and are shown in Table 2.

Sequence of recombinant human MMP-7 (P09237 95-267): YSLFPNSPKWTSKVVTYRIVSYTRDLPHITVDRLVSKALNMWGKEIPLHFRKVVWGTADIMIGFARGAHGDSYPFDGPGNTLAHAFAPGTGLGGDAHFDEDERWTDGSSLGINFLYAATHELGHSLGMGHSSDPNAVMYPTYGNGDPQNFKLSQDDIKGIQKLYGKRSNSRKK

## Cc1cc(COc2ccc(Sc3ccoc3C3NC(=O)NC3=O)cc2)ccn1 (centres unmarked) [FC-4]
[1]; 6 mg/kg/day, p<0.05
  Collagen-IV deposition in cortex of left kidney (IHC): significant reduction
[1]; 20 mg/kg/day
  Collagen-I deposition in cortex of left kidney (IHC): significant reduction
[1]; 20 mg/kg/day p.o. bid, day-15, not statistically significant vs model
  Serum BUN elevation: slightly limit the BUN elevation
[1]; 20 mg/kg/day, p<0.001
  Collagen-IV deposition in cortex of left kidney (IHC): significant reduction
  Interstitial fibrosis score in cortex: significant reduction
[1]; 2, 6, 20 mg/kg/day, 20 more effective than 2 mg/kg/day (p<0.01)
  Left kidney tubular damage score: clear dose dependent effect
[1]; dose dependent efficacy
  Interstitial inflammation in cortex (semi quantitative): significant reduction
[2]
  IC50: > 10 µM

— US10851089B2, “Matrix metalloproteinase (MMP) inhibitors and methods of use thereof” (Foresee Pharmaceuticals Co., Ltd., priority 2018, dated 2020)
